The nature of data set [1]: Suitability for murine therapeutic trials (toxicity, serum levels). Particulars: precluding murine therapeutic trials. It is filed as in vivo, mice.
Data set [2] has as its system nuclear β-catenin (Wnt/β-catenin pathway) in B16 cells. Description: Immunofluorescent staining of β-catenin in B16 cells. It is filed as cell-based, murine. Particulars: 1 μM BIO vs DMSO control. The procedure: A polyclonal rabbit anti-β-catenin antibody was used for detection of 1β-catenin (1:1000 dilution for immunoblot, 1:200 dilution for immunohistochemistry). Cells were grown on 18 mm glass coverslips, for 48-72 hours, fixed using 4% paraformaldehyde, permeabilized using 0.25% Triton X-100, and then blocked with 10% goat serum. Goat anti-rabbit Alexa Fluor-568 antibody (Molecular Probes; Eugene, Oreg.) was diluted 1:1000. Cells were counterstained for nucleic acid with DAPI (Molecular Probes; Eugene, Oreg.). Paraffin-embedded nevus sections were stained using an antibody dilution of 1:200. Cellular lysates were obtained by lysing cells on plate with a 0.1% NP-40 based buffer and analyzed by NuPage 4-12% gradient gels (Invitrogen; Grand Island, N.Y.). The WNTSA antibody was obtained from Cell Signaling Technologies (Danvers, Mass.).

Data set [3] relates to Axin2 expression (Wnt/β-catenin pathway) in B16 cells. Nature of the data set: Quantitative PCR of the Wnt/β-catenin target gene Axin2 in B16 cells. Format: cell-based, murine. As to conditions: 1 μM BIO vs control cells. Here is the method:
Cells were cultured for approximately 72 hours until they reached 80-90% confluency. RNA was purified using the RNeasy kit using the manufacturer's protocol (Qiagen; Maryland, Md.). cDNA was synthesized using Superscript Reverse Transcriptase (Invitrogen; Grand Island, N.Y.). Light Cycler FastStart DNA Master SYBR Green1 (Roche; Mannheim, Germany) was used for real-time PCR as previously described (Major et al., Science 316:1043 (2007), which is hereby incorporated by reference in its entirety). Quantitative PCR results presented in the manuscript are representative of experiments performed on a minimum of three biologic replicates.

Data set [4] deals with B16 melanoma cells. Description: MTT proliferation assay in B16 melanoma cells. Format: cell-based, murine. As to conditions: 1 μM BIO vs control cells. In general terms: Tetrazolium dyes change colour on reduction, which living cells bring about.

This is an account of results in patent US20170049793A1, “MOLECULAR ACTIVATORS OF THE WNT/BETA-CATENIN PATHWAY” (THE GENERAL HOSPITAL CORPORATION, priority 2009, published 2017).

Structures are written as SMILES.

Turning to `O=C1Nc2cc(Br)ccc2/C1=C1/Nc2ccccc2/C1=N\O` [BIO, 6-bromoindirubin-3′-oxime], the toxicity entry in data set [1] is reported as “obstacles relating to both toxicity”. Also, the “nuclear β-catenin (immunofluorescent staining)” value in data set [2] is reported as “increased nuclear β-catenin”. The “Axin2 levels (quantitative PCR)” value in data set [3] was “increased Axing levels”. In data set [4], the “proliferation (MTT assay)” value is given as “decreased proliferation”.
